ChEMBL document CHEMBL5230084, “Indole-based derivatives as potential antibacterial activity against methicillin-resistance Staphylococcus aureus (MRSA)” (Eur J Med Chem, 2020)
Converted amounts (≈) assume the structure as drawn.

Tests used:
[1] = test system: Staphylococcus aureus; assay: Antibacterial activity against methicillin-resistant Staphylococcus aureus; assay type: functional
[2] = test system: Staphylococcus aureus; assay: Antibacterial activity methicillin-resistant Staphylococcus aureus ST-2438 assessed as inhibition of bacterial growth incubated for 16 to 24 hrs by broth microdilution assay; assay type: functional; conditions: time 16-24 hrs
[3] = test system: Staphylococcus aureus; assay: Antibacterial activity methicillin-resistant Staphylococcus aureus B-10732 assessed as inhibition of bacterial growth incubated for 16 to 24 hrs by broth microdilution assay; assay type: functional; conditions: time 16-24 hrs
[4] = test system: Staphylococcus aureus; assay: Antibacterial activity methicillin-resistant Staphylococcus aureus ST-3151 assessed as inhibition of bacterial growth incubated for 16 to 24 hrs by broth microdilution assay; assay type: functional; conditions: time 16-24 hrs
[5] = test system: Staphylococcus aureus; assay: Antibacterial activity methicillin-resistant Staphylococcus aureus ST-1745 assessed as inhibition of bacterial growth incubated for 16 to 24 hrs by broth microdilution assay; assay type: functional; conditions: time 16-24 hrs
[6] = test system: Staphylococcus aureus; assay: Antibacterial activity methicillin-resistant Staphylococcus aureus P-6642 assessed as inhibition of bacterial growth incubated for 16 to 24 hrs by broth microdilution assay; assay type: functional; conditions: time 16-24 hrs
[7] = test system: Staphylococcus aureus; assay: Antibacterial activity methicillin-resistant Staphylococcus aureus P-8029 assessed as inhibition of bacterial growth incubated for 16 to 24 hrs by broth microdilution assay; assay type: functional; conditions: time 16-24 hrs
[8] = test system: Staphylococcus aureus; assay: Antibacterial activity methicillin-resistant Staphylococcus aureus B-10760 assessed as inhibition of bacterial growth incubated for 16 to 24 hrs by broth microdilution assay; assay type: functional; conditions: time 16-24 hrs
[9] = test system: Staphylococcus aureus; assay: Antibacterial activity methicillin-resistant Staphylococcus aureus ST-2071 assessed as inhibition of bacterial growth incubated for 16 to 24 hrs by broth microdilution assay; assay type: functional; conditions: time 16-24 hrs
[10] = test system: Staphylococcus aureus; assay: Antibacterial activity methicillin-resistant Staphylococcus aureus ST-10342 assessed as inhibition of bacterial growth incubated for 16 to 24 hrs by broth microdilution assay; assay type: functional; conditions: time 16-24 hrs
[11] = test system: Staphylococcus aureus; assay: Antibacterial activity methicillin-resistant Staphylococcus aureus ST-5457 assessed as inhibition of bacterial growth incubated for 16 to 24 hrs by broth microdilution assay; assay type: functional; conditions: time 16-24 hrs
[12] = test system: Staphylococcus aureus; assay: Antibacterial activity methicillin-resistant Staphylococcus aureus MTCC-96 assessed as inhibition of bacterial growth incubated for 16 to 24 hrs by broth microdilution assay; assay type: functional; conditions: time 16-24 hrs
[13] = test system: Staphylococcus aureus; assay: Antibacterial activity against methicillin-resistant Staphylococcus aureus 252 assessed as inhibition of bacterial growth; assay type: functional
[14] = Inhibition of methicillin-resistant Staphylococcus aureus pyruvate kinase
[15] = test system: Staphylococcus aureus; assay: Antibacterial activity against methicillin-resistant Staphylococcus aureus 12 assessed as inhibition of bacterial growth; assay type: functional
[16] = test system: Staphylococcus aureus; assay: Antibacterial activity against methicillin-resistant Staphylococcus aureus 4 assessed as inhibition of bacterial growth; assay type: functional
[17] = test system: Staphylococcus aureus; assay: Antibacterial activity against methicillin-resistant Staphylococcus aureus 9 assessed as inhibition of bacterial growth; assay type: functional
[18] = test system: Staphylococcus aureus; assay: Antibacterial activity against methicillin-resistant Staphylococcus aureus 11 assessed as inhibition of bacterial growth; assay type: functional
[19] = test system: Staphylococcus aureus; assay: Antibacterial activity against methicillin-resistant Staphylococcus aureus 8 assessed as inhibition of bacterial growth; assay type: functional
[20] = test system: Staphylococcus aureus; assay: Antibacterial activity against methicillin-resistant Staphylococcus aureus 6 assessed as inhibition of bacterial growth; assay type: functional
[21] = test system: Staphylococcus aureus; assay: Antibacterial activity against methicillin-resistant Staphylococcus aureus 3 assessed as inhibition of bacterial growth; assay type: functional
[22] = test system: Staphylococcus aureus; assay: Antibacterial activity against Staphylococcus aureus assessed as inhibition of bacterial growth; assay type: functional
[23] = test system: Staphylococcus aureus; assay: Antibacterial activity against Staphylococcus aureus ATCC 25923 assessed as inhibition of bacterial growth by agar well diffusion method; assay type: functional

SMILES: CCCCn1cc(Br)c2c3c(-c4ccc(OC)cc4)occ3ccc21
- MIC [1]: 1.4 µg/mL (≈ 3.51 µM)

SMILES: CCCCn1cc(Br)c2c3c(-c4ccc(Cl)cc4)onc3ccc21
- MIC [1]: 5 µg/mL (≈ 12.4 µM)

SMILES: c1ccc2c(-c3c[nH]c4ccccc34)c3c(nc2c1)[nH]c1ccccc13
- MIC [1]: 1 µg/mL (≈ 3 µM)

SMILES: OCc1cc(-c2c[nH]c3ccc(Br)cc23)nc2cc(Cl)ccc12
- MIC [1]: < 1 µg/mL

SMILES: O=C(/C=C/c1c[nH]c2ccccc12)c1cccc(OCc2ccccc2)c1
- MIC [2]: 12.5 µg/mL (≈ 35.4 µM)
- MIC [3]: 12.5 µg/mL (≈ 35.4 µM)
- MIC [4]: 12.5 µg/mL (≈ 35.4 µM)
- MIC [5]: 12.5 µg/mL (≈ 35.4 µM)
- MIC [6]: 12.5 µg/mL (≈ 35.4 µM)
- MIC [7]: 12.5 µg/mL (≈ 35.4 µM)
- MIC [8]: 12.5 µg/mL (≈ 35.4 µM)
- MIC [9]: 12.5 µg/mL (≈ 35.4 µM)
- MIC [10]: 12.5 µg/mL (≈ 35.4 µM)
- MIC [11]: 12.5 µg/mL (≈ 35.4 µM)
- MIC [12]: 12.5 µg/mL (≈ 35.4 µM)

SMILES: CC1=C(C(=O)O)N2C(=O)[C@@H](NC(=O)[C@H](N)c3ccccc3)[C@H]2SC1 [CEPHALEXIN ANHYDROUS]
- MIC [1]: 72 µg/mL (≈ 207 µM)

SMILES: Fc1ccc2[nH]cc(-c3ccc4cc(Cl)ccc4n3)c2c1
- MIC [1]: 0.62 µg/mL (≈ 2.09 µM)

SMILES: CC(NC(=O)C(=O)c1c[nH]c2ccc(Br)cc12)c1c[nH]c2ccc(Br)cc12 (stereo not given)
- MIC [13]: 2 µg/mL (≈ 4.09 µM)

SMILES: O=C(C1=N[C@H](c2c[nH]c3cc(Br)ccc23)CN1)c1c[nH]c2ccccc12
- IC50 [14]: 16 nM

SMILES: CCn1cc(Br)c2c3c(-c4ccc(OC)cc4)occ3ccc21
- MIC [1]: 1.4 µg/mL (≈ 3.78 µM)

SMILES: Cc1ccc(C(=O)OC[C@H]2O[C@H](n3c(-c4cc5ccccc5[nH]4)c(CC(=O)N(CC(=O)O)Cc4ccccc4)c4ccccc43)CC2OC(=O)c2ccc(C)cc2)cc1 (stereo not given in full)
- MIC [15]: 13 µg/mL (≈ 16.5 µM)
- MIC [16]: 13 µg/mL (≈ 16.5 µM)
- MIC [17]: 13 µg/mL (≈ 16.5 µM)
- MIC [18]: 13 µg/mL (≈ 16.5 µM)
- MIC [19]: 13 µg/mL (≈ 16.5 µM)
- MIC [20]: 13 µg/mL (≈ 16.5 µM)
- MIC [21]: 13 µg/mL (≈ 16.5 µM)

SMILES: O=C(c1ccc(F)cc1)C1C(c2ccc(Cl)cc2)CNC12C(=O)Nc1ccccc12 (stereo not given)
- MIC [22]: 30 µg/mL (≈ 71.3 µM)

SMILES: Clc1ccc(Nc2nnc(Cc3c[nH]c4ccccc34)s2)c(Cl)c1
- MIC [1]: 25 µg/mL (≈ 66.6 µM)

SMILES: O=C(NCC(NC(=O)C(=O)c1c[nH]c2ccc(Br)cc12)c1c[nH]c2ccc(Br)cc12)OC(F)(F)F (stereo not given)
- MIC [13]: 1 µg/mL (≈ 1.62 µM)

SMILES: COc1ccc(C2C([N+](=O)[O-])C(c3ccccc3)NC23C(=O)Nc2ccccc23)cc1 (stereo not given)
- MIC [23]: 5 µg/mL (≈ 12 µM)

SMILES: Clc1ccc2c(Cl)cc(-c3c[nH]c4ccc(Br)cc34)nc2c1
- MIC [1]: < 1 µg/mL

SMILES: Clc1ccc(C(c2c[nH]c3ccc(Br)cc23)c2c[nH]c3ccc(Br)cc23)cc1
- MIC [1]: 1 µg/mL (≈ 1.94 µM)

SMILES: Oc1cccc(C(c2c[nH]c3ccc(Br)cc23)c2c[nH]c3ccc(Br)cc23)c1
- MIC [1]: 1 µg/mL (≈ 2.02 µM)

SMILES: Cc1ccc(-c2onc3ccc4c(c(Br)cn4C(C)(C)C)c23)cc1
- MIC [1]: 4.3 µg/mL (≈ 11.2 µM)

SMILES: Fc1cccc(Nc2nnc(Cc3c[nH]c4ccccc34)s2)c1
- MIC [1]: 25 µg/mL (≈ 77.1 µM)

SMILES: Nc1nnc(Cc2c[nH]c3ccccc23)s1
- MIC [1]: 3.12 µg/mL (≈ 13.6 µM)

SMILES: CCCCn1cc(Br)c2c3c(-c4ccc(C)cc4)onc3ccc21
- MIC [1]: 4.3 µg/mL (≈ 11.2 µM)

SMILES: c1ccc(Nc2nnc(Cc3c[nH]c4ccccc34)s2)cc1
- MIC [1]: 25 µg/mL (≈ 81.6 µM)

SMILES: Fc1ccc(C(c2c[nH]c3ccc(Br)cc23)c2c[nH]c3ccc(Br)cc23)cc1
- MIC [1]: 1 µg/mL (≈ 2.01 µM)

SMILES: O=C(C1=NC(c2c[nH]c3cc(Br)ccc23)CN1)c1c[nH]c2ccccc12 (stereo not given) [SPONGOTINE A]
- IC50 [14]: 16 nM

SMILES: CC(C)(C)n1cc(Br)c2c3c(-c4ccc(Cl)cc4)onc3ccc21
- MIC [1]: 4.3 µg/mL (≈ 10.7 µM)

SMILES: CC(=O)/C(=C\c1cn(CC(=O)N2CCCCC2)c2ccccc12)n1c([N+](=O)[O-])cnc1C
- MIC [1]: 1 µg/mL (≈ 2.3 µM)

SMILES: CC(C)(C)OC(=O)NCC(NC(=O)c1c[nH]c2ccc(Br)cc12)c1c[nH]c2ccc(Br)cc12 (stereo not given)
- MIC [13]: 2 µg/mL (≈ 3.47 µM)

SMILES: N=C(N)N/N=C/c1cn(S(=O)(=O)c2ccccc2)c2ccc(-c3ccc(C(F)(F)F)cc3)cc12
- MIC [1]: 3.13 µg/mL (≈ 6.45 µM)
